Data as given in patent US20230174523A1, “BENZENESULFONAMIDE DERIVATIVES AS TRAP1 MODULATORS AND USES THEREOF” (Amathus Therapeutics, Inc., priority 2020, published 2023).

What was measured:
Format in all cases: cell-based
[1] = tested on: mIMCD3 Pkd1−/− cells; assay: Mouse cell derived cyst assay; details: PKD KO mouse cell derived cyst forming assay; FIG. 13
Protocol: Mouse cell derived cyst assays were performed as described in Booij, Tijmen H et al., SLAS discovery: advancing life sciences R & D vol. 22.8 (2017): 974-984, or as described below.
Murine inner medullary collecting duct cell line (mIMCD3 Pkd1^−/− cells) • mIMCD3 Pkd1 KO cells were seeded in 384 wells plates in extracellular matrix. • 4 days after seeding, cultures were co-exposed to treatments and stimuli (2.5 μM forskolin); • After 72 h, cultures were fixed, stained for nuclei and actin cytoskeleton and imaged with 4× magnification; and • Image analysis of the 3D stack was done using Ominer™ image analysis software.

[2] = tested on: primary rat dopaminergic neurons; assay: ROS production in primary dopaminergic TH-positive neurons injured with 6-OHDA; details: injury with 6-OHDA (20 μM, 4 h); FIG. 5
Protocol: (§1) Rat dopaminergic neurons were cultured as described by Visanji et al., 2008. Briefly, pregnant female rat of 15 days of gestation are sacrificed using a deep anesthesia with CO2 chamber and a cervical dislocation. The midbrains obtained from 15-day-old rat embryos are dissected under a microscope. The embryonic midbrains are removed and placed in ice-cold medium of Leibovitz (L15) containing 2% of Penicillin-Streptomycin (PS) and 1% of bovine serum albumin (BSA). The ventral portion of the mesencephalic flexure, a region of the developing brain rich in dopaminergic neurons, is used for the cell preparations.
The midbrains are dissociated by trypsinisation for 20 min at 37° C. (solution at a final concentration of 0.05% trypsin and 0.02% EDTA). The reaction is stopped by the addition of Dulbecco's modified Eagle's medium (DMEM) containing DNAase I grade II (0.5 mg/mL) and 10% of foetal calf serum (FCS). Cells are then mechanically dissociated by 3 passages through a 10 mL pipette. Cells are then centrifuged at 180×g for 10 min at +4° C. on a layer of BSA (3.5%) in L15 medium. […] Viable cells are counted in a Neubauer cytometer using the trypan blue exclusion test. […] Six wells per condition are assessed. […]

[3] = tested on: primary rat TH+ dopaminergic neurons; assay: ROS production in primary TH+ dopaminergic neurons injured with MPP+; details: injury with MPP+ (4 μM, 4 h); FIG. 6
Protocol: as §1
The midbrains are dissociated by trypsinisation for 20 min at 37° C. (solution at a final concentration of 0.05% trypsin and 0.02% EDTA). […] Viable cells are counted in a Neubauer cytometer using the trypan blue exclusion test. […] Six wells per condition are assessed. […]
For each condition, 20 pictures at 10× magnification (plate 1) or 30 pictures at 20× magnification (representing the whole well area) were automatically taken using ImageXpress®. […] The following read-outs were measured: Analysis of total number of TH neurons (TH positive neuron number), Analysis of the ROS into TH positive neurons, Analysis of caspase 3 positive TH neurons, and Analysis of total neurite network of TH positive neurons (in μm).
All values are expressed as mean+/−SEM (standard error of the mean). […]

In the case of `Cc1nn(C)c2sc(C(=O)Nc3ccc(F)c(S(=O)(=O)Nc4ccc(Cl)cc4)c3)cc12` [Compound 705], the cyst formation [1] is reported as “preventing cyst formation”, the “reactive oxygen species (ROS) production” value [2] is reported as “reduction in ROS” and the “reactive oxygen species (ROS) production” value [3] is reported as “reduction of ROS”.
